# Test results from patent US11331299B2, “Medicinal use of serrulatane diterpenes” (The University of Sydney, priority 2016, dated 2022).
# Where two headings read alike, the source gives them in different places.
# Key:
# [1] = biological target: receptors (Bioprint panel) (Homo sapiens, UniProt P41597); experiment: biochemical; format: binding; settings: CHEMOKINES CCR2 (h) (agonist radioligand); read-out: Reference Compound IC50
# [2] = biological target: receptors (Bioprint panel) (Homo sapiens, UniProt Q9H3N8); experiment: biochemical; format: binding; settings: read-out: Reference Compound IC50
# [3] = biological target: T1, enzymes (Bioprint panel) (Homo sapiens, UniProt O00408); experiment: biochemical; settings: PDE2A1 (h); read-out: Reference Compound IC50
# T1 construct: other: PDE2A1 (h); 10 μM; PDE2A1 (h)
# [4] = biological target: enzymes (Bioprint panel); experiment: biochemical; settings: COMT (catechol- O-methyl transferase); read-out: Reference Compound IC50
# [5] = biological target: CYP2B6 (Bupropion Substrate) (Homo sapiens, UniProt P20813); experiment: Cytochrome P450 Inhibition (CYP panel)
# [6] = biological target: T2, FBXL10 (h) (Homo sapiens, UniProt Q8NHM5); settings: read-out: Reference IC50; cited from earlier work
# T2 sequence (Q8NHM5 1-1336): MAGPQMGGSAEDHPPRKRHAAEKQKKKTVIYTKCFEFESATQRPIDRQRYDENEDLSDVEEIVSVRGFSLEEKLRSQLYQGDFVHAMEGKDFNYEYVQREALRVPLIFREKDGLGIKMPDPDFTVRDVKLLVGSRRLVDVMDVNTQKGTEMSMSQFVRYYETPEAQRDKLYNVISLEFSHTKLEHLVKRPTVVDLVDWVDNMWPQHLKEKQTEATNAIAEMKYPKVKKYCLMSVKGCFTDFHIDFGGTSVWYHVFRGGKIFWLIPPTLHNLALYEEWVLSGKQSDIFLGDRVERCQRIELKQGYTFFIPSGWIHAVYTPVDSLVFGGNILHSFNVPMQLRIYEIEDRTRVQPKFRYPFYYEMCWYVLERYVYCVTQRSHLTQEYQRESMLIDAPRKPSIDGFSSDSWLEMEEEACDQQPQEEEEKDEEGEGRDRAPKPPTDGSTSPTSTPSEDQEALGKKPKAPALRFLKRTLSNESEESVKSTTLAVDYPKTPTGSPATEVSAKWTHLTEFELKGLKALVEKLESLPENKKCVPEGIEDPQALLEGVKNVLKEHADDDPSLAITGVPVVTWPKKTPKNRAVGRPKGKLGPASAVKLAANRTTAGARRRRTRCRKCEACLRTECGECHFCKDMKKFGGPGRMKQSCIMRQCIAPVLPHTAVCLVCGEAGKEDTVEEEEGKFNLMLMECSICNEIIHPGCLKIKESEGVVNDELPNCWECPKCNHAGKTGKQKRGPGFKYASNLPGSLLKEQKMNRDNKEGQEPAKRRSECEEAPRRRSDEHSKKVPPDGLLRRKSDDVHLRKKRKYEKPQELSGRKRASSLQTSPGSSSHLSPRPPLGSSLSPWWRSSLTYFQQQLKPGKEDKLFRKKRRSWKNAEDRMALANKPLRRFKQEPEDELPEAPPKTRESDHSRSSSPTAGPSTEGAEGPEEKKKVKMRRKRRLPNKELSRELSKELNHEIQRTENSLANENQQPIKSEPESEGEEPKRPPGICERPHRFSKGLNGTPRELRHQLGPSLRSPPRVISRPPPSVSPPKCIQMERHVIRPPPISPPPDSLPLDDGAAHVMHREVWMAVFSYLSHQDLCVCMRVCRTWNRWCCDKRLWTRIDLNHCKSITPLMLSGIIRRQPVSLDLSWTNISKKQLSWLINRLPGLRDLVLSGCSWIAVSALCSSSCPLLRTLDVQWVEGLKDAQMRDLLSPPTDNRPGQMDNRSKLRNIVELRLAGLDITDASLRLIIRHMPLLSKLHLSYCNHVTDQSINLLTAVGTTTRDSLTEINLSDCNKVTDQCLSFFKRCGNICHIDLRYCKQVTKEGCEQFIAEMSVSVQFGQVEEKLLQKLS
# [7] = biological target: T3, JARID1A (h) (Homo sapiens, UniProt P29375); experiment: Epigenetic enzyme assay, Demethylases (KDMs); format: biochemical
# [8] = biological target: T2, FBXL10 (h); experiment: Epigenetic enzyme assay, Demethylases (KDMs); format: biochemical; settings: read-out: Reference IC50
# [9] = biological target: T3, JARID1A (h); settings: read-out: Reference IC50; cited from earlier work
# [10] = biological target: T4, JMJD2B (h) (Homo sapiens, UniProt O94953); experiment: Epigenetic enzyme assay, Demethylases (KDMs); format: biochemical
# T4 sequence (O94953 1-1096): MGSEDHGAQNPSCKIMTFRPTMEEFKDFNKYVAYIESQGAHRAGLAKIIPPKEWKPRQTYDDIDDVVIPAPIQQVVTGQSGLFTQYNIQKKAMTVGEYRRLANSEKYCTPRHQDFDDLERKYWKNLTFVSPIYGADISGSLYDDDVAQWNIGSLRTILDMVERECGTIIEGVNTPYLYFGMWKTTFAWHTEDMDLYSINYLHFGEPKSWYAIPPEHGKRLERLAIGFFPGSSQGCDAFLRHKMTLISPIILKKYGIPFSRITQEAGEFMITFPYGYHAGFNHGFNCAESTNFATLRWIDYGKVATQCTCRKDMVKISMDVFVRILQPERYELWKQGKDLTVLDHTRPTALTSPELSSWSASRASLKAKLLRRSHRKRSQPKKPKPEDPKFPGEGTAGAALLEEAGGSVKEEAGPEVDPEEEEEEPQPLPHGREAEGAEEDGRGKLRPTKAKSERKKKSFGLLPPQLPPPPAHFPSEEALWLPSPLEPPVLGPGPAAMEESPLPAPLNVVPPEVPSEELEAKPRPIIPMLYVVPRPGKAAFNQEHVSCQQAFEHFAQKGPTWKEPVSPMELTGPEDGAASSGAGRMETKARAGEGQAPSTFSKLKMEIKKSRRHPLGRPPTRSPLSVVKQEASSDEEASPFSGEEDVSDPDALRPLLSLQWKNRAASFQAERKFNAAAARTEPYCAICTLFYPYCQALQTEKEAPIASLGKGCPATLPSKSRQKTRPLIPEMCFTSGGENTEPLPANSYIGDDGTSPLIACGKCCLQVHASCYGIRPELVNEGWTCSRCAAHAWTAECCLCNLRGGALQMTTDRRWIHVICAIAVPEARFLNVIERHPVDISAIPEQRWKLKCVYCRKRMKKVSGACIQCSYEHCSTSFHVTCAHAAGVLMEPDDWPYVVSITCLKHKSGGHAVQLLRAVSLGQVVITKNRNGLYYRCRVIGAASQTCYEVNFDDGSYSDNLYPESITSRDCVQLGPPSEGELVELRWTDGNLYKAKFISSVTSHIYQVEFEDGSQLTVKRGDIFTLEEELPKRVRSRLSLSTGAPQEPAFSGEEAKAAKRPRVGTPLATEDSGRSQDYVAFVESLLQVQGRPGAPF
# [11] = biological target: T4, JMJD2B (h); settings: read-out: Reference IC50; cited from earlier work
# [12] = biological target: T5, enzymes (Bioprint panel) (UniProt A0ABM2YAB8); experiment: biochemical; settings: read-out: Reference Compound IC50
# T5 construct: other: MT3 (ML2) (agonist radioligand); 10 μM
# [13] = biological target: T6, GCN5L2(h) (Homo sapiens, UniProt Q92830); settings: reference compound; biotin-H3K27me3 50 nM; 10 min/RT; LANCE; cited from earlier work
# [14] = biological target: T6, GCN5L2(h); experiment: Epigenetic enzyme assay, Histone acetyltransferases (HATs); format: biochemical; settings: Table 10; read-out: Reference IC50
# [15] = biological target: receptors (Bioprint panel) (Homo sapiens, UniProt P14867); experiment: biochemical; format: binding
# [16] = biological target: receptors (Bioprint panel) (Homo sapiens, UniProt P35348); experiment: biochemical; format: binding; settings: read-out: Reference Compound IC50
# [17] = biological target: T7, Sirtuin 6 (h) (Homo sapiens, UniProt Q8N6T7); experiment: Epigenetic enzyme assay, Sirtuins; format: biochemical; settings: Table 10; read-out: Reference IC50
# [18] = biological target: T7, Sirtuin 6 (h); settings: reference compound; Fluorogenic HDAC 50 μM; 180 min/RT; cited from earlier work
# [19] = biological target: receptors (Bioprint panel) (Homo sapiens, UniProt P41595); experiment: biochemical; format: binding; settings: read-out: Reference Compound IC50
# [20] = biological target: receptors (Bioprint panel) (Homo sapiens, UniProt P28335); experiment: biochemical; format: binding; settings: read-out: Reference Compound IC50
# [21] = biological target: enzymes (Bioprint panel) (Mus musculus, UniProt P29477); experiment: biochemical; settings: inducible NOS; read-out: Reference Compound IC50
# [22] = biological target: T8, enzymes (Bioprint panel); experiment: biochemical; settings: read-out: Reference Compound IC50
# T8 construct: other: ATPase (Na+/K+); 10 μM
# [23] = biological target: T9, BRD3(2) (h) bromodomain (Homo sapiens, UniProt Q15059); settings: ligand biotin-H4 di acetyl Lys 5/8 100 nM; 30 min/RT; AlphaScreen; read-out: Reference IC50; cited from earlier work
# T9 construct: Bromodomain
# [24] = biological target: T9, BRD3(2) (h) bromodomain; experiment: Epigenetic binding assay, Bromodomain; settings: Table 4; read-out: Reference IC50
# [25] = biological target: receptors (Bioprint panel) (Homo sapiens, UniProt Q9GZV3); experiment: biochemical; format: binding; settings: choline transporter (CHT1) (h) (antagonist radioligand); read-out: Reference Compound IC50
# T3 sequence (P29375 whole entry): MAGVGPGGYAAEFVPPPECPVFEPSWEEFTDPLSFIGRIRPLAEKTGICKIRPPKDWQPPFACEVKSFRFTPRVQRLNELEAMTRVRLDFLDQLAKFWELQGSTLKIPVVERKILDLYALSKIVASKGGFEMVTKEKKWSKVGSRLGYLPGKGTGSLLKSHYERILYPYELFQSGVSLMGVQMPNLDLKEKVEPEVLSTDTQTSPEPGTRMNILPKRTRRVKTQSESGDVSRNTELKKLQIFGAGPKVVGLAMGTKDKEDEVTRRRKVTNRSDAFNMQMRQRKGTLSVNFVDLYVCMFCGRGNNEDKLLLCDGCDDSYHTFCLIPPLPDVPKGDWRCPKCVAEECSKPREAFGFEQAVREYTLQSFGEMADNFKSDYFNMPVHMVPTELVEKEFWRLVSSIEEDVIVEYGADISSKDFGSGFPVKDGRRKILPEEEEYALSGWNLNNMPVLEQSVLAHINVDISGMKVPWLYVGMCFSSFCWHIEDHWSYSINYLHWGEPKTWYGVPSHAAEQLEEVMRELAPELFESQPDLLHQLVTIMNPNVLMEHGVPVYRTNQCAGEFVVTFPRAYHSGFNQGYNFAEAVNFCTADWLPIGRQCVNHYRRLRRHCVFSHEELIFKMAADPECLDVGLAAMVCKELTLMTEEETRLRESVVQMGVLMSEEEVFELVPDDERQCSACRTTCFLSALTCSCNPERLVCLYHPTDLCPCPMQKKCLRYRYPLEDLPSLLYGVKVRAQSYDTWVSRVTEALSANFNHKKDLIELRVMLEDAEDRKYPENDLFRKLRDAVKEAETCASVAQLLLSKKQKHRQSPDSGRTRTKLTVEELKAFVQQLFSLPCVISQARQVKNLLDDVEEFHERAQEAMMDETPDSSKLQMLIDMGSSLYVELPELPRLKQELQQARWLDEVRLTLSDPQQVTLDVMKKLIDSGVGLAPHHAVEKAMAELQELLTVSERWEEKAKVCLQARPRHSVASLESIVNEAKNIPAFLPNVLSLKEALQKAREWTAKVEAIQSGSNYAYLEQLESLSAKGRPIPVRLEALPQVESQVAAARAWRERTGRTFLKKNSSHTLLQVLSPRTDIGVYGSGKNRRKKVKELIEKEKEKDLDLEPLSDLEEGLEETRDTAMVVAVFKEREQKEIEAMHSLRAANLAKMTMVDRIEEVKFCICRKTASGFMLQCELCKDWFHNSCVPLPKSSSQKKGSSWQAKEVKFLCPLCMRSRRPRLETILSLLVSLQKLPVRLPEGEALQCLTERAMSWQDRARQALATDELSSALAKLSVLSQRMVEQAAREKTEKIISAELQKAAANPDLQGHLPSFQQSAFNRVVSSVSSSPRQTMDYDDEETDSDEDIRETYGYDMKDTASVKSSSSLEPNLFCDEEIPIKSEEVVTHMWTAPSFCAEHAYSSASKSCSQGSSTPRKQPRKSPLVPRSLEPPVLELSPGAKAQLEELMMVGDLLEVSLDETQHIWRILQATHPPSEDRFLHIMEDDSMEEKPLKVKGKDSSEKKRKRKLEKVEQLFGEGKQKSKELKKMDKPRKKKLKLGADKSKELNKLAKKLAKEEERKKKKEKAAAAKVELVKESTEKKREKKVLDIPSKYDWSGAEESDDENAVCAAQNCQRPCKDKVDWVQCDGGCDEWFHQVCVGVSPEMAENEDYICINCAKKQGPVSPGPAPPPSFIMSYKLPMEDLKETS
# T7 sequence (Q8N6T7 whole entry): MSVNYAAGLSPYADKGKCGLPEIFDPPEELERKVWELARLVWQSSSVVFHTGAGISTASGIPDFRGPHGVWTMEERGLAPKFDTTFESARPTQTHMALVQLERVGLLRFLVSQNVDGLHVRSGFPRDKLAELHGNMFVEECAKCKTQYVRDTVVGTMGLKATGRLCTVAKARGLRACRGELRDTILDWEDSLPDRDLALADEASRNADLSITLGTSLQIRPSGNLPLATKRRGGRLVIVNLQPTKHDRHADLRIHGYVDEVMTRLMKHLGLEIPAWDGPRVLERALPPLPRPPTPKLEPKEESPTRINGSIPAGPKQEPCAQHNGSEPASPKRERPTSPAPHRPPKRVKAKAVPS
# T9 sequence (Q15059 306-415 limits assumed): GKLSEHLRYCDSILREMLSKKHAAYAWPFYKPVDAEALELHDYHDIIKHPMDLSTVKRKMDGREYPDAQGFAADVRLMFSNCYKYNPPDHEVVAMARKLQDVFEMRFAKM
# T6 sequence (Q92830 whole entry): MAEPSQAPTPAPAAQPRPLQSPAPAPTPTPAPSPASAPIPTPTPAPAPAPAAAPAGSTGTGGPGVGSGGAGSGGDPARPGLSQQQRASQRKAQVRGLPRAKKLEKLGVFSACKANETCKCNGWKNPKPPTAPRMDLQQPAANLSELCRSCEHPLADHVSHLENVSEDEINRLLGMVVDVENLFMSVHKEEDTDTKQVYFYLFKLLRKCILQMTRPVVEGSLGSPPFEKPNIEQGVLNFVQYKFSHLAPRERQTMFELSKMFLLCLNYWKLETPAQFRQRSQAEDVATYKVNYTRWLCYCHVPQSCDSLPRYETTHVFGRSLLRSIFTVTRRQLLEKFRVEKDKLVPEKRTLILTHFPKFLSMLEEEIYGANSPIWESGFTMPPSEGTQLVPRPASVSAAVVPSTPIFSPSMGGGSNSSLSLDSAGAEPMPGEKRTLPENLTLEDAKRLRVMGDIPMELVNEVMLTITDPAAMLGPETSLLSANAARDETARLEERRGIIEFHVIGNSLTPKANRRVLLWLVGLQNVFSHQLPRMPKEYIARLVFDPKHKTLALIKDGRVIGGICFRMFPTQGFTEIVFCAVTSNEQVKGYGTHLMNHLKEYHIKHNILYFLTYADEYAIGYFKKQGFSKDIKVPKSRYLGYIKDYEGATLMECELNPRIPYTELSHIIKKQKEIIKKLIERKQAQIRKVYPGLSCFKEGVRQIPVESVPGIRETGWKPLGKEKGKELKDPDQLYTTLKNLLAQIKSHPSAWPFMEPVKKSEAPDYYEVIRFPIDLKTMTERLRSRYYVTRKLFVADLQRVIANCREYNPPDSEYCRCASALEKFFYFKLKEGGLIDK
# Sequence of receptors (Bioprint panel) (Homo sapiens, UniProt P28335) (P28335 33-458): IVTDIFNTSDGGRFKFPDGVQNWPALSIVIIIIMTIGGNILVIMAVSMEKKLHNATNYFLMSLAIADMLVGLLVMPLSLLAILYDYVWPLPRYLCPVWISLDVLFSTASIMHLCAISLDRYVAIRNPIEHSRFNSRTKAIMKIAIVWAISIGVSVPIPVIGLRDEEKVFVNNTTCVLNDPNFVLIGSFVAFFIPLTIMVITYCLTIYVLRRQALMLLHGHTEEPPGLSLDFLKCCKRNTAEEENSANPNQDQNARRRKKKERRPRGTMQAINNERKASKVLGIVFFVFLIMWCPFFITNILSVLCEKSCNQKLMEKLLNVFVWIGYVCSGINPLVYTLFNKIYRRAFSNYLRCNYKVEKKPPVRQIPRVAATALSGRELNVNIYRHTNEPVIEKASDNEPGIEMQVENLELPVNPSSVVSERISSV
# T1 sequence (O00408 other isoform, or with tags, fused parts or gaps): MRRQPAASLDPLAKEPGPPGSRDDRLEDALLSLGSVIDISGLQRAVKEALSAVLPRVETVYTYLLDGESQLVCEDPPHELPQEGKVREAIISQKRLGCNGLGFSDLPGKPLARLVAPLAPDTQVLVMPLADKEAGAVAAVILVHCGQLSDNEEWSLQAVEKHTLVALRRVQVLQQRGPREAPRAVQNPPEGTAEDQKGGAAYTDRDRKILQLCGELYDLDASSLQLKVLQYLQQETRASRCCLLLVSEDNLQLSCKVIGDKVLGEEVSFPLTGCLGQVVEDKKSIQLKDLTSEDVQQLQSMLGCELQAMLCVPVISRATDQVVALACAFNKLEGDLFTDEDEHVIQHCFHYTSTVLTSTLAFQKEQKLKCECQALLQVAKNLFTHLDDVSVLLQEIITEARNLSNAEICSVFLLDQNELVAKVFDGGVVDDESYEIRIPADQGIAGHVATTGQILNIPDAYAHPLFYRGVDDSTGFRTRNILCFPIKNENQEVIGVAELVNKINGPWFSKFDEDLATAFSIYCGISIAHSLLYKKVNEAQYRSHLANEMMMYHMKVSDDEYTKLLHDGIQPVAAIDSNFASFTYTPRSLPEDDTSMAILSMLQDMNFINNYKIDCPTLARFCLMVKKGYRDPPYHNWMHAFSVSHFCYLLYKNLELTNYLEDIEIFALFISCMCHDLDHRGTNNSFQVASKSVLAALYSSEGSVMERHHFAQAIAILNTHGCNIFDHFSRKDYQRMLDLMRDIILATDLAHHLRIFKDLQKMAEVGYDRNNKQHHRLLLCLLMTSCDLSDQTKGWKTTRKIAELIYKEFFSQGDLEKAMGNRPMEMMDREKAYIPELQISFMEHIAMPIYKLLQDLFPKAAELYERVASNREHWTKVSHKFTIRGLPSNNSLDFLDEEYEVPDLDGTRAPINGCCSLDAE
# Sequence of receptors (Bioprint panel) (Homo sapiens, UniProt P41595) (P41595 whole entry): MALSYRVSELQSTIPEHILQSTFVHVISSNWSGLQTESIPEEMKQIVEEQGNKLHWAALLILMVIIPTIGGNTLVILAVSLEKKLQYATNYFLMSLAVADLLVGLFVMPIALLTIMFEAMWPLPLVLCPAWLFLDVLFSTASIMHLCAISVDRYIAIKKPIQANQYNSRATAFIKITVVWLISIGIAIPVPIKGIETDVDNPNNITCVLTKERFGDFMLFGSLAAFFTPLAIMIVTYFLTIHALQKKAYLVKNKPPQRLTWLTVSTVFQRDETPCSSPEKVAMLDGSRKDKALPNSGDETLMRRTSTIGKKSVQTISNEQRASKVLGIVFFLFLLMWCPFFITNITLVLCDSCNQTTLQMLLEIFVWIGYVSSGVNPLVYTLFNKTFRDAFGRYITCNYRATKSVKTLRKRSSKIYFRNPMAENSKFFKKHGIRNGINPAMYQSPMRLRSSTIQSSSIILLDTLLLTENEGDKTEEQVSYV
# T5 sequence (A0ABM2YAB8 entry or part of it): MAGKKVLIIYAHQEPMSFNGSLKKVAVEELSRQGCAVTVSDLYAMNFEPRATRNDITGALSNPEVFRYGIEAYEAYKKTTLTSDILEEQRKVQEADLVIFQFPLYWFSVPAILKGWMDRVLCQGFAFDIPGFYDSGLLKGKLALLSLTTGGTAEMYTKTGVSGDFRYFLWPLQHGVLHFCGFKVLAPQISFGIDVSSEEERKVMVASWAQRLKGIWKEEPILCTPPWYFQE
molecule,measurement,setting,value
MCP-1,IC50,[1],0.087 nM
N=C(N)SCCc1cnc[nH]1 [imetit],IC50,[2],4.7 nM
CCCCCC[C@@H]([C@@H](C)O)n1cnc2c(N)ncnc21 (racemic) [EHNA],IC50,[3],1200 nM
O=C(c1cc(O)c(O)c([N+](=O)[O-])c1)c1ccccc1F [Ro 41-0960],IC50,[4],61 nM
"COC(=O)[C@H](c1ccccc1Cl)N1CCc2sccc2C1 [clopidogrel, reference compound]",IC50,[5],390 nM
"O=C(O)c1ccnc(C(=O)O)c1 [2,4 PDCA, reference compound]",IC50,[6],610 nM
same,IC50,[7]; read-out: IC50,99 nM
same,IC50,[7]; read-out: Reference IC50,180 nM
same,IC50,[8],610 nM
same,IC50,[9],180 nM
same,IC50,[10]; read-out: IC50,95 nM
same,IC50,[10]; read-out: Reference IC50,140 nM
same,IC50,[11],140 nM
COc1ccc2[nH]cc(CCNC(C)=O)c2c1 [melatonin],IC50,[12],160 nM
"CCCCCCCCCCCCCCCc1cccc(O)c1C(=O)O [Anacardic Acid, reference compound]",IC50,[13],4700 nM
same,IC50,[14],4700 nM
NCc1cc(=O)[nH]o1 [muscimol],IC50,[15],53 nM
COc1cccc(OC)c1OCCNCC1COc2ccccc2O1 (stereo not drawn) [WB 4101],IC50,[16],0.27 nM
"NC(=O)C1CCCc2c1[nH]c1ccc(Cl)cc21 (racemic) [EX-527, reference compound]",IC50,[17],550000 nM
same,IC50,[18],550000 nM
COc1cc(CC(C)N)c(OC)cc1I (racemic) [(±)DOI],IC50,[19],6.7 nM
same,IC50,[20],0.24 nM
CC(=N)NCc1cccc(CN)c1 [1400 W],IC50,[21],29 nM
C[C@@H]1O[C@@H](O[C@H]2C[C@@H](O)[C@]3(CO)[C@H]4[C@H](O)C[C@]5(C)[C@@H](C6=CC(=O)OC6)CC[C@]5(O)[C@@H]4CC[C@]3(O)C2)[C@H](O)[C@H](O)[C@H]1O [ouabain],IC50,[22],250 nM
"COc1ccccc1S(=O)(=O)Nc1ccc2c(c1)CN(C)C(=O)N2 [PFI-1, reference compound]",IC50,[23],790 nM
same,IC50,[24],790 nM
C[N+]1(C)CCOC(O)(c2ccc(-c3ccc(C4(O)C[N+](C)(C)CCO4)cc3)cc2)C1 (stereo not drawn) [hemicholinium-3],IC50,[25],4.6 nM
